The values below come from patent US20090062277A1, “PHOSPHODIESTERASE 10 INHIBITORS” (priority 2007, published 2009).

In the assay the target is T1, mPDE10A7 (Mus musculus, UniProt Q8CA95).
T1 sequence (Q8CA95 446-763 limits assumed): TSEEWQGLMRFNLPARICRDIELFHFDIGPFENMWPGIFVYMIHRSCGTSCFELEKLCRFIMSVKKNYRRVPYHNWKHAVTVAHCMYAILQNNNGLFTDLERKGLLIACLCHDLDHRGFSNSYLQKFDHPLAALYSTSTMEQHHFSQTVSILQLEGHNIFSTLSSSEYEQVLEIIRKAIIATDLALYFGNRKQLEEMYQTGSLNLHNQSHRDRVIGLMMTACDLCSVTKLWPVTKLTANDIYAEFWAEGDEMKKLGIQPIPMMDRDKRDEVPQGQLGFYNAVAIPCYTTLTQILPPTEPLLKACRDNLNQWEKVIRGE
Put plainly: mPDE10A7 enzyme inhibition (IMAP fluorescence polarization). It is filed as biochemical. Conditions: fluorescein labeled cAMP or cGMP substrate, 30 min at room temperature. As for the experimental part:
Enzyme Activity. To analyze the enzyme activity, 5 μL of serial diluted mPDE10A7 containing lysate were incubated with equal volumes of diluted (100-fold) fluorescein labeled cAMP or cGMP for 30 min in MDC HE 96-well assay plates (Molecular Devices Corp., Sunnyvale Calif.) at room temperature. Both the enzyme and the substrates were diluted in the following assay buffer: Tris/HCl (pH 8.0) 50 mM, MgCl2 5 mM, 2-mercaptoethanol 4 mM, and BSA 0.33 mg/mL. After incubation, the reaction was stopped by adding 20 μL of diluted (400-fold) binding reagents and was incubated for an hour at room temperature. The plates were counted in an Analyst GT (Molecular Devices) for fluorescence polarization. An IMAP assay kit (Molecular Devices) was used to assess enzyme properties of mPDE10A7. Data were analyzed with SOFTMAX PRO software (Molecular Devices).
Enzyme Inhibition. To check the inhibition profile, 10 μL of serial diluted compounds were incubated with 30 μl of diluted PDE enzymes in a 96-well polystyrene assay plate for 30 min at room temperature. After incubation, 5 μL of the compound-enzyme mixture were aliquoted into a MDC HE black plate, mixed with 5 μl of 100-fold diluted fluorescein labeled substrates (cAMP or cGMP), and incubated for 30 min at room temperature. The reaction was stopped by adding 20 μL of diluted binding reagents and counted in an Analyst GT for fluorescence polarization. The data were analyzed with SoftMax Pro.
A general note: Fluorescence polarisation rises when a labelled molecule tumbles more slowly, as on binding a larger partner.
The term IC50 denotes the concentration that inhibits the measured activity by half. Regarding `COc1cc2nncc(-c3ccc(N4CCC(C(=O)N5CCOCC5)CC4)nc3)c2cc1OC` [Cpd 27], the IC50 was determined as 5.63 nM.
With `COc1cc2nncc(-c3ccc(N4CCN(C(=O)C5CC5)CC4)nc3)c2cc1OC` [Cpd 22], the half-inhibitory concentration (IC50) amounted to 4.85 nM.
Turning to `COc1cc2nncc(-c3cnc(N4CCN(c5ccc(F)cc5F)CC4)c(C)c3)c2cc1OC` [Cpd 16], the IC50 was 11 nM.
The compound `COc1cc2nncc(-c3cnc(N4CCC(C(N)=O)CC4)c(C)c3)c2cc1OC` [Cpd 28] came in with an IC50 of 2.08 nM.
Compound `COc1cc2nncc(-c3cnc(N4CCC(O)(c5cccnc5)CC4)c(C)c3)c2cc1OC` [Cpd 13] registered a half-inhibitory concentration (IC50) of 1.02 nM.
Then `COc1cc2nncc(-c3ccc(N4CCN(CC5CC5)CC4)nc3)c2cc1OC` [Cpd 17], with 10.2 nM; and `CCOC(=O)C1CCN(c2ccc(-c3cnnc4cc(OC)c(OC)cc34)cn2)CC1` [Cpd 30], with 9.57 nM.
In turn, `COc1cc2nncc(-c3cnc(N4CCC(O)(c5ccccn5)CC4)c(Cl)c3)c2cc1OC` [Cpd 8, 1-(3-chloro-5-(6,7-dimethoxycinnolin-4-yl)pyridin-2-yl)-4-(pyridin-2-yl)piperidin-4-ol] came in with a 50% inhibitory concentration (IC50) of 3.07 nM.
As to `COc1cc2nncc(-c3ccc(N4CCN(c5cccc(C(F)(F)F)c5)CC4)nc3)c2cc1OC` [Cpd 15], the IC50 is 126 nM.
The compound `COc1cc2nncc(-c3ccc(N4CCN(C(C)=O)CC4)nc3)c2cc1OC` [Cpd 18] showed an IC50 of 6.56 nM.
In the case of `COc1cc2nccc(-c3cnc(N4CCC(C(C)(C)O)CC4)c(C)c3)c2cc1OC` [Cpd 24], half-maximal inhibition (IC50) required 4.22 nM.
Then `COc1cc2nncc(-c3ccc(N4CCC(O)(c5ccccn5)CC4)nc3)c2cc1OC` [Cpd 2, 1-(5-(6,7-dimethoxycinnolin-4-yl)pyridin-2-yl)-4-(pyridin-2-yl)piperidin-4-ol], with 5.58 nM; and `COc1cc2nncc(-c3cnc(N4CCC(C)(O)CC4)c(C)c3)c2cc1OC` [Cpd 7, 1-(5-(6,7-dimethoxycinnolin-4-yl)-3-methylpyridin-2-yl)-4-methylpiperidin-4-ol], with 0.6 nM.
`COc1cc2nncc(-c3ccc(N4CCN(c5ncc(Cl)cc5Cl)CC4)nc3)c2cc1OC` [Cpd 14] had an IC50 of 417 nM.
Then `COc1cc2c(-c3ccc(N4CCC(O)(c5ccccc5)CC4)nc3)cnnc2cc1C` [Cpd 35], with 191 nM; and `COc1cc2cncc(-c3cnc(N4CCC(C(C)(C)O)CC4)c(C)c3)c2cc1OC` [Cpd 12], with 14.7 nM; and `COC[C@H]1CCCN1c1ncc(-c2cnnc3cc(OC)c(OC)cc23)cc1Cl` [Cpd 9], with 1 nM.
`COc1cc2nncc(-c3ccc(N4CCCC4CN(C)C)nc3)c2cc1OC` (centres unmarked) [Cpd 20] registered an IC50 of 60.2 nM.
Take `COc1cc2nncc(-c3cnc(N4CCC(O)(C5CC5)CC4)c(C)c3)c2cc1OC` [Cpd 4, 4-cyclopropyl-1-(5-(6,7-dimethoxycinnolin-4-yl)-3-methylpyridin-2-yl)piperidin-4-ol]: the 50% inhibitory concentration (IC50) was found to be 2.8 nM. This IC50 is about 22-fold lower than that of the compound before.
Turning to `COc1cc2nncc(-c3ccc(N4CCCC4c4cccs4)nc3)c2cc1OC` (centres unmarked) [Cpd 25], the 50% inhibitory concentration (IC50) stood at 7.42 nM.
